# Assay results from patent publication US20240254140A1, “COMPOUNDS AND THEIR USE IN THE TREATMENT OF BACTERIAL INFECTION” (Hoffmann-La Roche Inc., priority 2021, published 2024).
# Tested on: Escherichia coli ATCC 25922
# Experiment: Minimal Inhibitory Concentration (MIC) determination, broth microdilution
# Format: cell-based
# Details: ATCC25922; strain Escherichia coli ATCC 25922; broth microdilution per CLSI M07-A10; 18-24 hours at 35±2° C.; lowest concentration for complete growth inhibition
# Experimental: Minimal Inhibitory Concentration (MIC) Determination:
# The MIC of antibacterial compounds against multiple species and strains was determined using the broth microdilution method according to M07-A10 Clinical and Laboratory Standards Institute (CLSI) guidelines, using the appropriate broth medium. In short, the compound plates were prepared by dispensing 100 μL of each stock solution in the first well of a 96 well microtiter plate (MTP) at a concentration 100-fold higher than the final concentration desired in broth. Eleven serial 2-fold dilutions of the highest concentration were made in DMSO for new compounds and in water (or appropriate solution) for reference compounds [2]. 1 μL of each well was transferred in a new MTP, which served as the test plate by subsequent inoculation. This bacterial suspension was prepared from strains that were first sub-cultured on agar plates and incubated for 18-24 hours as appropriate. Following incubation, the inoculum was prepared from isolated colonies and adjusted to 0.5 McFarland turbidity standard (1 to 2×10^8 Colony Forming Units (CFU)/mL) in 0.9% saline. The bacterial suspension was then diluted 1:200 in appropriate sterile medium and within 15 minutes 100 μL/well were dispensed. Negative controls (lack of bacterial cells) and growth control wells (lack of compound) were included in all plates. MTPs were incubated for 18-24 hours at 35±2° C. in ambient air. The MIC value of each compound, expressed as μg/mL, was determined as the lowest concentration required for complete growth inhibition (no visible growth). • [1] CLSI (2015) Methods for dilution antimicrobial susceptibility tests for bacteria that grow aerobically; Approved Standard, Tenth Edition. CLSI Document M7-A10 (ISBN 1-56238-987-4). Wayne, PA: Clinical and Laboratory Standards Institute, 19087, USA. • [2] CLSI (2017) Performance Standards for Antimicrobial Susceptibility Testing; Twenty-Fifth Informational Supplement. CLSI Document M100-S27, CLSI, Wayne, Pennsylvania 19087, USA.
# Table 1 provides the Minimal Inhibitory Concentrations (MIC) in micrograms per millilitre of the compounds of present invention obtained against the strain Escherichia coli ATCC 25922.
row,SMILES,MIC
1,"C[C@@]1(C(=O)Nc2cc(F)c3c(c2)CC(CN2CCC4(CC2)CN(c2cnc5c(n2)NC(=O)CO5)C(=O)O4)C3)C[C@@H](O)CN1 (single isomer, unassigned) [Example 72]",0.5 µg/mL
2,CN(C)C1(C(=O)Nc2cc(F)c3c(c2)CC(CNCCC2CN(c4cnc5c(n4)NC(=O)CO5)C(=O)O2)C3)CC1 (stereo not drawn) [Example 2],1 µg/mL
3,"O=C(CN1CCOCC1)Nc1cc(F)c2c(c1)CC(CNCCC1CN(c3cnc4c(n3)NC(=O)CO4)C(=O)O1)C2 (stereo not drawn) [Example 5, N-[7-fluoro-2-[[2-[2-oxo-3-(3-oxo-4H-pyrazino[2,3-b][1,4]oxazin-6-yl)oxazolidin-5-yl]ethylamino]methyl]indan-5-yl]-2-morpholino-acetamide]",1 µg/mL
4,CN(CC(=O)Nc1cc(F)c2c(c1)CC(CNCCC1CN(c3cnc4c(n3)NC(=O)CO4)C(=O)O1)C2)C1COC1 (stereo not drawn) [Example 11],0.5 µg/mL
5,CN(CC(=O)Nc1cc(F)c2c(c1)CC(CNCCC1CN(c3cnc4c(n3)NC(=O)CO4)C(=O)O1)C2)C1CC1 (stereo not drawn) [Example 13],1 µg/mL
6,"CO[C@@H]1C[C@@H](C(=O)Nc2cc(F)c3c(c2)CC(CNCCC2CN(c4cnc5c(n4)NC(=O)CO5)C(=O)O2)C3)N(C)C1 (stereo partly drawn) [Example 17, (2S,4R)-N-[7-fluoro-2-[[2-[2-oxo-3-(3-oxo-4H-pyrazino[2,3-b][1,4]oxazin-6-yl)oxazolidin-5-yl]ethylamino]methyl]indan-5-yl]-4-methoxy-1-methyl-pyrrolidine-2-carboxamide]",1 µg/mL
7,CN(C)[C@]1(C(=O)Nc2cc(F)c3c(c2)CC(CNCCC2CN(c4cnc5c(n4)NC(=O)CO5)C(=O)O2)C3)CCOC1 (stereo partly drawn) [Example 19],2 µg/mL
8,CC(C)(O)C(=O)Nc1cc(C#N)c2c(c1)CC(CNCCC1CN(c3cnc4c(n3)NC(=O)CO4)C(=O)O1)C2 (stereo not drawn) [Example 20],0.5 µg/mL
9,"CC(C)(O)C(=O)Nc1cc(C#N)c2c(c1)CC(CNCCC1CN(c3ccc4c(n3)NC(=O)CO4)C(=O)O1)C2 (stereo not drawn) [Example 21, N-[7-cyano-2-[[2-[2-oxo-3-(3-oxo-4H-pyrido[3,2-b][1,4]oxazin-6-yl)oxazolidin-5-yl]ethylamino]methyl]indan-5-yl]-2-hydroxy-2-methyl-propanamide]",0.5 µg/mL
10,C[C@H](C(=O)Nc1ccc2c(c1F)CC(CNCCC1CN(c3cnc4c(n3)NC(=O)CO4)C(=O)O1)C2)N(C)C (stereo partly drawn) [Example 23],0.5 µg/mL
11,Cc1cc(NC(=O)CN(C)C)nc2c1CC(CNCCC1CN(c3cnc4c(n3)NC(=O)CO4)C(=O)O1)C2 (stereo not drawn) [Example 24],0.5 µg/mL
12,"Cc1cc(NC(=O)[C@@H](C)N(C)C)nc2c1CC(CNCCC1CN(c3cnc4c(n3)NC(=O)CO4)C(=O)O1)C2 (stereo partly drawn) [Example 25, (2R)-2-(dimethylamino)-N-[4-methyl-6-[[2-[2-oxo-3-(3-oxo-4H-pyrazino[2,3-b][1,4]oxazin-6-yl)oxazolidin-5-yl]ethylamino]methyl]-6,7-dihydro-5H-cyclopenta[b]pyridin-2-yl]propanamide]",1 µg/mL
13,"Cc1cc(NC(=O)CN2CCC2)nc2c1CC(CNCCC1CN(c3cnc4c(n3)NC(=O)CO4)C(=O)O1)C2 (stereo not drawn) [Example 26, 2-(azetidin-1-yl)-N-[4-methyl-6-[[2-[2-oxo-3-(3-oxo-4H-pyrazino[2,3-b][1,4]oxazin-6-yl)oxazolidin-5-yl]ethylamino]methyl]-6,7-dihydro-5H-cyclopenta[b]pyridin-2-yl]acetamide]",0.5 µg/mL

# Other lines, results leading:
row,MIC,SMILES
1,0.25 µg/mL,CN(C)C(C)(C)C(=O)Nc1cc(F)c2c(c1)CC(CNCCC1CN(c3cnc4c(n3)NC(=O)CO4)C(=O)O1)C2 (stereo not drawn) [Example 3]
2,0.25 µg/mL,CN(C)C(C)(C)C(=O)Nc1cc(F)c2c(c1)CC(CN1CCC3(CC1)CN(c1cnc4c(n1)NC(=O)CO4)C(=O)O3)C2 (stereo not drawn) [Example 6]
3,0.25 µg/mL,"C[C@H](C(=O)Nc1cc(F)c2c(c1)CC(CN1CCC3(CC1)CN(c1cnc4c(n1)NC(=O)CO4)C(=O)O3)C2)N(C)C (stereo partly drawn) [Example 7, (2R)-2-(dimethylamino)-N-[7-fluoro-2-[[2-oxo-3-(3-oxo-4H-pyrazino[2,3-b][1,4]oxazin-6-yl)-1-oxa-3,8-diazaspiro[4.5]decan-8-yl]methyl]indan-5-yl]propanamide]"
4,0.25 µg/mL,"Cc1ncc(C(=O)Nc2cc(F)c3c(c2)CC(CNCCC2CN(c4cnc5c(n4)NC(=O)CO5)C(=O)O2)C3)o1 (stereo not drawn) [Example 15, N-[7-fluoro-2-[[2-[2-oxo-3-(3-oxo-4H-pyrazino[2,3-b][1,4]oxazin-6-yl)oxazolidin-5-yl]ethylamino]methyl]indan-5-yl]-2-methyl-oxazole-5-carboxamide]"
5,0.25 µg/mL,"CC(C)(O)C(=O)Nc1cc(F)c2c(c1)CC(CNCCC1CN(c3cnc4c(n3)NC(=O)CO4)C(=O)O1)C2 (stereo not drawn) [Example 18, N-[7-fluoro-2-[[2-[2-oxo-3-(3-oxo-4H-pyrazino[2,3-b][1,4]oxazin-6-yl)oxazolidin-5-yl]ethylamino]methyl]indan-5-yl]-2-hydroxy-2-methyl-propanamide]"
6,0.125 µg/mL,"C[C@H](C(=O)Nc1cc(F)c2c(c1)CC(CNCC[C@H]1CN(c3cnc4c(n3)NC(=O)CO4)C(=O)O1)C2)N(C)C (single isomer, unassigned) [Example 68]"
7,0.125 µg/mL,"CN(C)CC(=O)Nc1cc(F)c2c(c1)CC(CNCCC1CN(c3cnc4c(n3)NC(=O)CO4)C(=O)O1)C2 (stereo not drawn) [Example 1, 2-(Dimethylamino)-N-[7-fluoro-2-[[2-[2-oxo-3-(3-oxo-4H-pyrazino[2,3-b][1,4]oxazin-6-yl)oxazolidin-5-yl]ethylamino]methyl]indan-5-yl]acetamide]"
8,0.125 µg/mL,"C[C@H](C(=O)Nc1cc(F)c2c(c1)CC(CNCCC1CN(c3cnc4c(n3)NC(=O)CO4)C(=O)O1)C2)N(C)C (stereo partly drawn) [Example 4, (2R)-2-(dimethylamino)-N-[7-fluoro-2-[[2-[2-oxo-3-(3-oxo-4H-pyrazino[2,3-b][1,4]oxazin-6-yl)oxazolidin-5-yl]ethylamino]methyl]indan-5-yl]propanamide]"
9,0.125 µg/mL,"O=C(CN1CCC1)Nc1cc(F)c2c(c1)CC(CNCCC1CN(c3cnc4c(n3)NC(=O)CO4)C(=O)O1)C2 (stereo not drawn) [Example 8, 2-(azetidin-1-yl)-N-[7-fluoro-2-[2-[2-oxo-3-(3-oxo-4H-pyrazino[2,3-b][1,4]oxazin-6-yl)oxazolidin-5-yl]ethylaminomethyl]indan-5-yl]acetamide]"
10,0.125 µg/mL,C[C@@H](C(=O)Nc1cc(F)c2c(c1)CC(CNCCC1CN(c3cnc4c(n3)NC(=O)CO4)C(=O)O1)C2)N(C)C (stereo partly drawn) [Example 9]
11,0.125 µg/mL,"CN1CCC[C@H]1C(=O)Nc1cc(F)c2c(c1)CC(CNCCC1CN(c3cnc4c(n3)NC(=O)CO4)C(=O)O1)C2 (stereo partly drawn) [Example 10, (2S)-N-[7-fluoro-2-[[2-[2-oxo-3-(3-oxo-4H-pyrazino[2,3-b][1,4]oxazin-6-yl)oxazolidin-5-yl]ethylamino]methyl]indan-5-yl]-1-methyl-pyrrolidine-2-carboxamide]"
12,0.125 µg/mL,"O=C(CN1CC2CC2C1)Nc1cc(F)c2c(c1)CC(CNCCC1CN(c3cnc4c(n3)NC(=O)CO4)C(=O)O1)C2 (stereo not drawn) [Example 12, 2-(3-azabicyclo[3.1.0]hexan-3-yl)-N-[7-fluoro-2-[2-[2-oxo-3-(3-oxo-4H-pyrazino[2,3-b][1,4]oxazin-6-yl)oxazolidin-5-yl]ethylaminomethyl]indan-5-yl]acetamide]"
13,0.125 µg/mL,"CN1CCC[C@@H]1C(=O)Nc1cc(F)c2c(c1)CC(CNCCC1CN(c3cnc4c(n3)NC(=O)CO4)C(=O)O1)C2 (stereo partly drawn) [Example 14, (2R)-N-[7-fluoro-2-[[2-[2-oxo-3-(3-oxo-4H-pyrazino[2,3-b][1,4]oxazin-6-yl)oxazolidin-5-yl]ethylamino]methyl]indan-5-yl]-1-methyl-pyrrolidine-2-carboxamide]"
14,0.125 µg/mL,CC(C(=O)Nc1cc(F)c2c(c1)CC(CNCC[C@@H]1CN(c3cnc4c(n3)NC(=O)CO4)C(=O)O1)C2)N1CCC1 (stereo partly drawn) [Example 16]
15,0.125 µg/mL,"C[C@H](C(=O)Nc1cc(C#N)c2c(c1)CC(CNCC[C@@H]1CN(c3cnc4c(n3)NC(=O)CO4)C(=O)O1)C2)N(C)C (stereo partly drawn) [Example 22, (2R)-N-[7-cyano-2-[[2-[(5R)-2-oxo-3-(3-oxo-4H-pyrazino[2,3-b][1,4]oxazin-6-yl)oxazolidin-5-yl]ethylamino]methyl]indan-5-yl]-2-(dimethylamino)propanamide]"

# Same assay, conditions: strain Escherichia coli ATCC 25922; broth microdilution per CLSI M07-A10; 18-24 hours at 35±2° C.; lowest concentration for complete growth inhibition
row,Escherichia coli growth inhibition MIC,SMILES
1,0.125 µg/mL,"C[C@H](C(=O)Nc1cc(F)c2c(c1)CC(CNCC[C@H]1CN(c3cnc4c(n3)NC(=O)CO4)C(=O)O1)C2)N(C)C (single isomer, unassigned) [Example 69]"
2,0.5 µg/mL,"C[C@@]1(C(=O)Nc2cc(F)c3c(c2)CC(CN2CCC4(CC2)CN(c2cnc5c(n2)NC(=O)CO5)C(=O)O4)C3)C[C@@H](O)CN1 (single isomer, unassigned) [Example 73]"
